Read-outs that look alike come from different tables or passages of the source.
Key:
[1] = system: BaF3-EGFR^L858R/T790M/C797S cells; experiment: BaF3 cell proliferation inhibition experiment (CCK-8); assay type: cell-based; conditions: Ba/F3 EGFR-L858R, 72 hours
From the text: BaF3 cell proliferation inhibition experiment: The compounds of the present invention have excellent inhibitory activity against the proliferation of BaF3-EGFR^L858R/T790M/C797S cells
(§1) A. Cell line: BaF3 cells with stable overexpression of wild-type genes are named BaF3-EGFR^WT, and BaF3 cells with stable overexpression of EGFR^L858R/T790M/C797S EGFR^del19/T790M/C797S EGFR^L858R/C797S and EGFR^del19/C797S mutant genes are named BaF3-EGFR^L858R/T790M/C797S BaF3-EGFR^del19/T790M/C797S BaF3-EGFR^L858R/C797S and BaF3-EGFR^del19/C797S cells, respectively. Mediums:
(§2) a) The medium was preheated in a 37° C. water bath.
(§3) b) The cryopreservation tube was taken from the liquid nitrogen tank, quickly placed in a 37° C. water bath, and melted completely within 1 minute.
(§4) c) The cell suspension was transferred to a 15 mL centrifuge tube containing a 10 mL medium and centrifuged at 1000 rpm for 4 minutes.
(§5) d) The supernatant was discarded, the cells were resuspended in a 1 mL medium and transferred to a […] culture dish containing a 10 mL medium, 20% serum and 50 ng/mL EGF were administered to the first-generation medium, and culture was conducted in a 37° C. and 5% CO2 incubator.
(§6) b) The cells in the culture dish were blown evenly with a 5 mL pipette, and 500 μL of the cells were pipetted out to be inoculated into a new […] culture dish and cultured in a 37° C. and 5% CO2 incubator.
(§7) a) The compound to be tested (10 mM stock solution) was diluted with 100% DMSO to 1 mM, and diluted with a culture solution in a 24-well plate to prepare of a working solution of 2 μM concentration.
(§8) b) The 2 μM working solution was diluted with a triple dilution method to obtain working solutions with approximate concentrations of 2 μM, 600 nM, 200 nM, 60 nM, and 20 nM.
(§9) a) The cells at the logarithmic growth phase were centrifuged at 1000 rpm for 4 minutes, resuspended with a medium (containing 10% serum and 50 ng/mL EGF), and counted.
(§10) b) The cells were inoculated into a 96-well plate with a cell density of 4000 cells/well, and placed in a 37° C. and 5% CO2 incubator for culture for 12 hours.
(§11) a) The prepared compound was added to a 96-well plate, with 100 μL per well. The final concentrations were 1 μM, 300 nM, 100 nM, 30 nM, 10 nM, and 0 nM, and the final concentration of DMSO was 0.2%. A medium served as a blank control.
(§12) b) The cells were placed in 37° C. and 5% CO2 incubator for culture for 72 hours.
(§13) (5) Cell Viability Testing
(§14) a) The 96-well cell culture plate was taken out, and 20 μL of a CCK-8 reagent (Cell Counting Kit-8, Topscience, Catalog No. C0005) was added in the dark.
(§15) b) Mixing well was conducted on a horizontal shaking table at a room temperature at 100 rpm for 5 minutes.
(§16) c) The culture plate was placed in a 37° C. constant-temperature incubator for incubation.
d) Starting from the addition of the CCK-8, the absorbance at 450 nm was read using the TECAN microplate reader at 1 hour, 2 hours, and 3 hours, respectively.
(§17) The data was analyzed using GraphPad Prism 8.0 software to obtain a fitted curve of activity of the compounds. The IC50 of the compounds was fitted from nonlinear regression equation.

BaF3-EGFR^WT cells = experiment: as above; assay type: cell-based; conditions: Mus musculus, read-out: BaF3-EGFR^WT (IC50 nM)
Protocol: as §1, §2, §3, §4, §5, §6, §7, §8, §9, §10, §11, §12, §13, §14, §15, §16, §17

[2] = system: BaF3-EGFR^del19/T790M/C797S cells; experiment: as above; assay type: cell-based; conditions: Ba/F3 EGFR-Del19/T790M/C797S, read-out: BaF3-EGFR^del19 /T790M/C797S (IC50 nM)
Protocol: as §1, §2, §3, §4, §5, §6, §7, §8, §9, §10, §11, §12, §13, §14, §15, §16, §17

[3] = biological target: EGFR^L858R/T790M/C797S kinase (Homo sapiens (Human), UniProt P00533, C797S/L858R/T790M); experiment: EGFR^L858R/T790M/C797S kinase inhibitory activity experiment; assay type: biochemical; conditions: in vitro
EGFR^L858R/T790M/C797S kinase, sequence (P00533 25-1210 T790M/C797S/L858R): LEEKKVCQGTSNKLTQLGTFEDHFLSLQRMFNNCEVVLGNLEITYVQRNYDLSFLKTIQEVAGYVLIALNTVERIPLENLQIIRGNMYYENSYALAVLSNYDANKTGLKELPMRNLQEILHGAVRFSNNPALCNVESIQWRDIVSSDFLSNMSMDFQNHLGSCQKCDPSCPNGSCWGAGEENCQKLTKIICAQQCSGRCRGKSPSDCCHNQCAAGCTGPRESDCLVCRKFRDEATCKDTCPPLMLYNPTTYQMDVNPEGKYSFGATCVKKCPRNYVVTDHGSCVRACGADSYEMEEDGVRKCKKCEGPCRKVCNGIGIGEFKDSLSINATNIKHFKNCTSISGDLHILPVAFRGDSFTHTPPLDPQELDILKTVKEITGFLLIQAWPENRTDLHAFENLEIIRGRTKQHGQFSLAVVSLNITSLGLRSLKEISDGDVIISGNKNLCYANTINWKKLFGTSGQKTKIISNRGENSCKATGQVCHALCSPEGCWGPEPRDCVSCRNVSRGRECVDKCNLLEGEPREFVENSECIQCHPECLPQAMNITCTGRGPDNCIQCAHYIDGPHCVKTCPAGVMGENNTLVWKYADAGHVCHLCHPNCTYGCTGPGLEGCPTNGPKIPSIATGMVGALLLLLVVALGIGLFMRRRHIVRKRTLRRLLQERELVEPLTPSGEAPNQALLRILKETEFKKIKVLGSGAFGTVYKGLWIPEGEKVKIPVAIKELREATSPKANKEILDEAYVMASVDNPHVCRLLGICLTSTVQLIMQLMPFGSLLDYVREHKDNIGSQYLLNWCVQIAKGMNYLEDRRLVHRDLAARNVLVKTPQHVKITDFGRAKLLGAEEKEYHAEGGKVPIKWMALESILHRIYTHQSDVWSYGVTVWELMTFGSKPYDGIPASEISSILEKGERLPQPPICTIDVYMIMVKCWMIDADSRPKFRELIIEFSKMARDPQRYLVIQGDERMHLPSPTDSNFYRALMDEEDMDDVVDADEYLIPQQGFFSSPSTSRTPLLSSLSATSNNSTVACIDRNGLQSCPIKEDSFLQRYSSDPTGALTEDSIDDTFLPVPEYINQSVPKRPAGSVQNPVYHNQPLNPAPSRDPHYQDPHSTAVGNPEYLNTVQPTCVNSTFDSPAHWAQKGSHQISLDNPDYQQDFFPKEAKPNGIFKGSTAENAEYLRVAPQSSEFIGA
Outline: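 Human EGFR L858R/T790M/C797S mutant preincubated 10 min with compound (10-point dilution from 1 μM), then reacted 60 min at room temperature with ATP and kinase substrate 22. Substrate conversion read by Caliper mobility shift. % inhibition normalized to no-enzyme and no-compound wells, with IC50 from variable-slope log(inhibitor) fit.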

IC50 (BaF3-EGFR^WT cells; BaF3, cell proliferation, 72 hours) | IC50 ([2]; cell proliferation, 72 hours) | SMILES | IC50 [1] | IC50 [3] | IC50 (BaF3-EGFR^WT cells; BaF3, 72 h) | IC50 ([2]; 72 h)
1570 nM | 66.3 nM | CCc1cc(Nc2ncc(Cl)c(Nc3ccc(C)c(C)c3P(C)(C)=O)n2)c(OC)cc1N1CCC(N2CCN(C)CC2)CC1 [Comparative Compound A, reference compound] | 47.3 nM | 0.54 nM |  | 
 |  | CCc1cc(Nc2ncc(Cl)c(Nc3ccc(C)c(C)c3P(C)(C)=O)n2)c(OC)cc1N1CCC2(CC1)CC(N(C)C)C2 [Compound 6, (6-((5-chloro-2-((4-(2-(dimethylamino)-7-azaspiro[3.5]nonan-7-yl)-5-ethyl-2-methoxyphenyl)amino)pyrimidin-4-yl)amino)-2,3-dimethylphenyl)dimethylphosphine oxide] | 67.6 nM | 0.88 nM |  | 
 |  | CCc1cc(Nc2ncc(Cl)c(Nc3ccc(C)c(C)c3P(C)(C)=O)n2)c(OC)cc1N1CC2(CCN(C)CC2)C1 [Compound 24, (6-((5-Chloro-2-((5-ethyl-2-methoxy-4-(7-methyl-2,7-diazaspiro[3.5]non-2-yl)phenyl)amino)pyrimidin-4-yl)amino)-2,3-dimethylphenyl)dimethylphosphine oxide] | 43.3 nM | 0.55 nM | 5770 nM | 128 nM
 |  | CCc1cc(Nc2ncc(Cl)c(Nc3ccc(C)c(C)c3P(C)(C)=O)n2)c(OC)cc1N1CCC(N2C[C@H]3CC[C@@H](C2)N3C)CC1 [Compound 51, (6-((5-chloro-2-((5-ethyl-2-methoxy-4-(4-((1R,5S)-8-methyl-3,8-diazabicyclo[3.2.1]octan-3-yl)piperidin-1-yl)phenyl)amino)pyrimidin-4-yl)amino)-2,3-dimethylphenyl)dimethylphosphine oxide] | 131 nM | 0.0452 nM | 1180 nM | 29.9 nM
